Experimental data taken from ChEMBL document CHEMBL5385861, “Development of novel hydrazidoarylaminopyrimidine-based BTK/FLT3 dual inhibitors with potent in vivo anti-hematological malignancies effects” (Eur J Med Chem, 2023).
Each block holds one compound with its values, some of them ahead of it. Activity calls are given as the source filed them. The calls are words filed in the database; no cut-off is given here.

How the values were obtained:
JeKo-1 [1] = assay: cells; conditions: Homo sapiens, JeKo-1, 72 h
Description: Antiproliferative activity against human JeKo-1 cells assessed as inhibition of cell growth incubated for 72 hrs by CCK8 assay

[2] = Metabolic stability in human liver microsome assessed as half life preincubated with compound for 5 mins followed by NADPH addition and measured upto 60 mins by LC-MS/MS analysis; assay type: ADME; conditions: liver microsomes, time < 65 min
[3] = Metabolic stability in human liver microsome assessed as intrinsic clearance preincubated with compound for 5 mins followed by NADPH addition and measured upto 60 mins by LC-MS/MS analysis; assay type: ADME; conditions: liver microsomes, time < 65 min, read-out: CLH
MV4-11 [4] = assay: cells; conditions: Homo sapiens, MV4-11, 72 h
MOLT-4 = assay: cells; conditions: Homo sapiens, MOLT-4, 72 h
Description: Antiproliferative activity against human MOLT-4 cells assessed as inhibition of cell growth incubated for 72 hrs by CCK8 assay

K562 = assay: cells; conditions: Homo sapiens, K562, 72 h
Description: Antiproliferative activity against human K562 cells assessed as inhibition of cell growth incubated for 72 hrs by CCK8 assay

[5] = target: Tyrosine-protein kinase BTK (Homo sapiens, UniProt Q06187); assay: Inhibition of BTK (unknown origin) incubated for 40 mins by radiometric kinase assay
MV4-11 [6] = assay: Antitumor activity against human MV4-11 cells xenografted NOD/SCID mouse assessed as increase in tumor necrotic cells at 20 mg/kg, ip administered once daily for 21 days by H and E staining analysis; assay type: functional, organism-based; conditions: time 21.0 day
in vitro [7] = conditions: human, Caco-2
Description: Apparent permeability across basolateral to apical side in human Caco-2 cells incubated for 120 mins by LC-MS/MS analysis

P-glycoprotein = assay: in vitro; conditions: human, Caco-2
Description: Efflux ratio of apparent permeability across basolateral to apical side over apical to basolateral side in human Caco-2 cells incubated for 120 mins in presence of P-glycoprotein by LC-MS/MS analysis

in vitro [8] = conditions: human, Caco-2; remark: listed apart in the source
Description: Apparent permeability across apical to basolateral side in human Caco-2 cells incubated for 120 mins by LC-MS/MS analysis

JeKo-1 [9] = assay: Induction of apoptosis in human JeKo-1 cells assessed as viable cells at 750 nM incubated for 72 hrs by Annexin VFITC/PI staining based flow cytometry analysis (reference value: 94.81%); assay type: functional
JeKo-1 [10] = assay: Induction of apoptosis in human JeKo-1 cells assessed as late apoptotic cells at 750 nM incubated for 72 hrs by Annexin VFITC/PI staining based flow cytometry analysis (reference value: 1.42%); assay type: functional
JeKo-1 [11] = assay: Induction of apoptosis in human JeKo-1 cells assessed as necrotic cells at 750 nM incubated for 72 hrs by Annexin VFITC/PI staining based flow cytometry analysis (reference value: 0.67%); assay type: functional
JeKo-1 [12] = assay: Induction of apoptosis in human JeKo-1 cells assessed as early apoptotic cells at 750 nM incubated for 72 hrs by Annexin VFITC/PI staining based flow cytometry analysis (reference value: 3.10%); assay type: functional
JeKo-1 [13] = assay: Antitumor activity against human JeKo-1 cells xenografted NOD/SCID mouse assessed as reduction in tumor weight at 50 mg/kg, ip measured for 16 days; assay type: functional; conditions: time 16 day
JeKo-1 [14] = assay: Antitumor activity against human JeKo-1 cells xenografted NOD/SCID mouse assessed as tumor growth inhibition at 50 mg/kg, ip measured for 16 days; assay type: functional; conditions: JeKo-1, 384 h, time 16 day, read-out: TGI

Chain of Tyrosine-protein kinase BTK (Q06187 whole entry): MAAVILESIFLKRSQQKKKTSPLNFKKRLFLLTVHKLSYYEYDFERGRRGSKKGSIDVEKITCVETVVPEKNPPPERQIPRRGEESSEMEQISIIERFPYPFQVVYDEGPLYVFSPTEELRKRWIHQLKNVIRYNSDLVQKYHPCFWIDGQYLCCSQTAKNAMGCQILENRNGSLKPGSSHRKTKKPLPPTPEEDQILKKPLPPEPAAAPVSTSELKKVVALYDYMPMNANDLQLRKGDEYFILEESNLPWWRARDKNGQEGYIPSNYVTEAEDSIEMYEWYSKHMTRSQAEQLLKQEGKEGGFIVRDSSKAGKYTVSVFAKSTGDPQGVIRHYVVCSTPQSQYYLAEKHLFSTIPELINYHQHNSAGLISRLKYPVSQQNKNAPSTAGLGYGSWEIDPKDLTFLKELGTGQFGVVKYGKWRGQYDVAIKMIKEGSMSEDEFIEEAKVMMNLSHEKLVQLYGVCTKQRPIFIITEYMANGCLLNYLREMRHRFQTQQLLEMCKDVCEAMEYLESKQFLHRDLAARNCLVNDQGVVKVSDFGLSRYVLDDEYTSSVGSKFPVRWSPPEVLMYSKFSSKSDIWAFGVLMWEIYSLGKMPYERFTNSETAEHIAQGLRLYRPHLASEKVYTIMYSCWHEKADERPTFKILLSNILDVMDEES

SMILES: O=C(O)Cc1ccccc1Nc1c(Cl)cccc1Cl [DICLOFENAC]
half-life [2]: 5.44 min | CLint scaled [3]: 230 mL/min/kg

SMILES: CN1CCN(c2ccc(Nc3ncc(F)c(Nc4ccc(C(=O)NN)cc4)n3)cc2F)CC1
IC50 (JeKo-1 [1]): 1090 nM

SMILES: NNC(=O)c1cccc(Nc2nc(Nc3ccc(N4CCOCC4)cc3)ncc2F)c1
IC50 (JeKo-1 [1]): 801 nM

SMILES: NNC(=O)c1ccc(Nc2nc(Nc3ccc(N4CCOCC4)cc3)ncc2F)cc1
IC50 (JeKo-1 [1]): > 2000 nM

SMILES: CCN1CCN(c2ccc(Nc3ncc(F)c(Nc4ccccc4C(=O)NN)n3)cc2)CC1
IC50 (JeKo-1 [1]): 1280 nM

SMILES: CNC(=O)c1cc(Oc2ccc(NC(=O)Nc3ccc(Cl)c(C(F)(F)F)c3)cc2)ccn1 [SORAFENIB]
IC50 (JeKo-1 [1]): 1070 nM | IC50 (MOLT-4): 2500 nM | Activity (MV4-11 [6]): Active | IC50 (K562): 7.74 µM

SMILES: C[C@H]1O[C@@H](O[C@H]2[C@@H](O)C[C@H](O[C@H]3[C@@H](O)C[C@H](O[C@H]4CC[C@@]5(C)[C@H](CC[C@@H]6[C@@H]5C[C@@H](O)[C@]5(C)[C@@H](C7=CC(=O)OC7)CC[C@]65O)C4)O[C@@H]3C)O[C@@H]2C)C[C@H](O)[C@@H]1O [DIGOXIN]
Papp B→A at 2 h (in vitro [7]): 11.2 ×10⁻⁶ cm/s | efflux ratio at 2 h (P-glycoprotein): 44.1 | Papp A→B at 2 h (in vitro [8]): 0.25 ×10⁻⁶ cm/s

SMILES: C=CC(=O)N1CCC[C@@H](n2nc(-c3ccc(Oc4ccccc4)cc3)c3c(N)ncnc32)C1 [IBRUTINIB]
Activity (JeKo-1 [9]): 85.08% | IC50 (JeKo-1 [1]): 1680 nM | Activity (JeKo-1 [10]): 0.32% | IC50 (MV4-11 [4]): 423 nM | Activity (JeKo-1 [11]): 0.18% | IC50 (MOLT-4): 3520 nM | IC50 (K562): 5.57 µM | Activity (JeKo-1 [12]): 14.42%

SMILES: CN1CCN(c2ccc(Nc3ncc(F)c(Nc4cccc(C(=O)NN)c4)n3)cc2)CC1
IC50 (JeKo-1 [1]): 562 nM

SMILES: CN1CCN(c2ccc(Nc3ncc(F)c(Nc4ccc(C(=O)NN)cc4)n3)cc2)CC1
IC50 (JeKo-1 [1]): 1410 nM

SMILES: CCN1CCN(c2ccc(Nc3ncc(F)c(Nc4cccc(C(=O)NN)c4)n3)cc2)CC1
IC50 (JeKo-1 [1]): 540 nM

SMILES: CN1CCN(c2ccc(Nc3ncc(F)c(Nc4ccccc4C(=O)NN)n3)cc2F)CC1
IC50 (JeKo-1 [1]): 52 nM | IC50 (MV4-11 [4]): 31 nM | IC50 (MOLT-4): 65 nM | IC50 (K562): 0.69 µM | IC50 [5]: 84 nM

Further lines, with some results ahead:

IC50 (JeKo-1 [1]): > 2000 nM
SMILES: COc1cc(N2CCN(C)CC2)ccc1Nc1ncc(F)c(Nc2cccc(C(=O)NN)c2)n1

IC50 (JeKo-1 [1]): 1240 nM
SMILES: NNC(=O)c1cccc(Nc2nc(Nc3ccc(N4CCCCC4)cc3)ncc2F)c1

IC50 (JeKo-1 [1]): > 2000 nM
SMILES: COc1cc(N2CCN(C)CC2)ccc1Nc1ncc(F)c(Nc2ccccc2C(=O)NN)n1

IC50 (JeKo-1 [1]): > 2000 nM
SMILES: COc1cc(N2CCN(C)CC2)ccc1Nc1ncc(F)c(Nc2ccc(C(=O)NN)cc2)n1

IC50 (JeKo-1 [1]): 88 nM | IC50 (MV4-11 [4]): 41 nM | IC50 (MOLT-4): 239 nM | IC50 (K562): > 25 µM | IC50 [5]: 105 nM
SMILES: NNC(=O)c1ccccc1Nc1nc(Nc2ccc(N3CCOCC3)cc2)ncc1F

IC50 (JeKo-1 [1]): 222 nM
SMILES: CN1CCN(c2ccc(Nc3ncc(F)c(Nc4cccc(C(=O)NN)c4)n3)cc2F)CC1

IC50 (JeKo-1 [1]): 1750 nM
SMILES: CCN1CCN(c2ccc(Nc3ncc(F)c(Nc4ccc(C(=O)NN)cc4)n3)cc2)CC1

IC50 (JeKo-1 [1]): > 2000 nM
SMILES: NNC(=O)c1ccc(Nc2nc(Nc3ccc(N4CCCCC4)cc3)ncc2F)cc1

IC50 (JeKo-1 [1]): 1480 nM | IC50 (MV4-11 [4]): 245 nM | IC50 (MOLT-4): 1460 nM | IC50 (K562): 7.4 µM
SMILES: C=CC(=O)Nc1cccc(Nc2nc(Nc3ccc(OCCOC)cc3)ncc2F)c1 [SPEBRUTINIB]
Activity (JeKo-1 [13]): 0.69 g | inhibition in vivo at 50 mg/kg (JeKo-1 [14]): 38.1%

IC50 (JeKo-1 [1]): 1880 nM
SMILES: NNC(=O)c1ccccc1Nc1nc(Nc2ccc(N3CCCCC3)cc2)ncc1F

Papp B→A at 2 h (in vitro [7]): 20.1 ×10⁻⁶ cm/s | efflux ratio at 2 h (P-glycoprotein): 0.62 | Papp A→B at 2 h (in vitro [8]): 32.4 ×10⁻⁶ cm/s
SMILES: CC(C)NCC(O)COc1cccc2ccccc12 (stereo unspecified) [PROPRANOLOL]
